# From patent US20110217324A1, “INHIBITORS OF ANTIGEN PRESENTATION BY MHC CLASS II MOLECULES AND METHODS OF USE THEREOF” (priority 2007, published 2011)
# Numbered stars: 1 amine (or outer) side, 2 acyl side, 3 side chain; on linkers, the order of the positions; unused ones are H or OH. Square brackets hold non-standard residues; d marks the D form. Peptide text beside a SMILES is read from it. * marks the point of attachment. X1 = O=C(C(Cc1ccc2[nH]c3ccccc3c2c1)N[*:1])[*:2]; X2 = O=C([C@H](Cc1cccc2[nH]cnc12)N[*:1])[*:2]; X7 = O=C([C@H](Cc1cccc2[nH]ncc12)N[*:1])[*:2]; Trp(1-Me) = Cn1cc(C[C@H](N)C(=O)O)c2ccccc21; X5 = O=C(C(Cc1cccc2[nH]ccc12)N[*:1])[*:2]; Oic = O=C(O)[C@@H]1C[C@@H]2CCCC[C@@H]2N1; Bta = N[C@@H](Cc1csc2ccccc12)C(=O)O; Gly(cPent) = N[C@H](C(=O)O)C1CCCC1; Lys(Me2) = CN(C)CCCC[C@H](N)C(=O)O; Igl = N[C@H](C(=O)O)C1Cc2ccccc2C1; hCit = NC(=O)NCCCC[C@H](N)C(=O)O; Tic = O=C(O)[C@@H]1Cc2ccccc2CN1; Cit = NC(=O)NCCC[C@H](N)C(=O)O; Chg = N[C@H](C(=O)O)C1CCCCC1; NHPhenethyl = c1ccc(CCN*)cc1; X3 = c1cc2cc(CCN*)ccc2[nH]1; X4 = c1cc(CCN*)c2cc[nH]c2c1; Pip = O=C(O)[C@@H]1CCCCN1; Nva = CCC[C@H](N)C(=O)O; Abu = CC[C@H](N)C(=O)O; βAla = NCCC(=O)O; Sar = CNCC(=O)O
# Biological target: T1, MHC DR2 (DRB1*1501/DRA*0101) (Homo sapiens, UniProt P01903+P01911)
# T1 construct: endogenous in cells; host or cells: EBV homozygous (B lymphoblastoid) cell lines
# Test: HLA II Binding Assay (competition with biotinylated reference peptide)
# Details: purified HLA-DR, biotinylated reference compound for DRB1*1501, 37° C. 24 h to 72 h; read-out: Inhibition of peptide binding IC50 (against MHC DR2 (DRB1*1501/DRA*0101))
# Procedure: EBV homozygous cell lines are used as sources of human HLA class II molecules. […] The supernatant from lysed cells after centrifugation (100,000 g for 1 h) is applied to Sepharose 4B and protein A-Sepharose 4B columns and then to the specific antibody column. […] Fractions are immediately neutralized to pH 7 with 2 mM Tris-HCl (pH 6.8) and extensively dialyzed against 1 mM n-dodecyl β-D-maltoside, 150 mM NaCl, 10 mM phosphate (pH 7) buffer.
# Samples (100 μl per well) are incubated in 96-wells polypropylene plates at 37° C. for 24 h to 72 h. After neutralization with 50 μl of 450 mM Tris HCl pH 7.5, 0.003% thimerosal, 0.3% BSA, 1 mM n-dodecyl β-D-maltoside buffer, samples are applied to 96-well maxisorp ELISA plates previously coated with 10 μg/ml L243 Mab and saturated with 100 mM Tris HCl pH=7.5, 0.3% BSA, and 0.003% thimerosal buffer. Samples are allowed to bind to the antibody-coated plates for 2 h at room temperature. Bound biotinylated compound is detected by incubating streptavidin-alkaline phosphatase conjugate, and after washings, by the addition of 4-methylumbelliferyl phosphate substrate. […] Maximal binding is determined by incubating the biotinylated peptide with the MHC class II molecule in the absence of competitor. Binding specificity is assessed by adding an excess of non-biotinylated peptide.
row,Molecule,IC50 [nM]
1,CC(=O)N[C@H](C(=O)N[C@H](C(=O)N[C@@H](CCCNC(=N)N)C(=O)N1CCCC[C@H]1C(=O)N[C@@H](Cc1ccccc1)C(N)=O)C1CCCCC1)C(C)C [AcV(Chg)R(homo Pro)F] (Ac-V[Chg]R[Pip]F-NH2),10 to 100
2,CC(=O)N[C@H](C(=O)N[C@H](C(=O)N[C@@H](C)C(=O)N1Cc2ccccc2C[C@H]1C(=O)N[C@@H](Cc1ccccc1)C(N)=O)C1CCCCC1)C(C)C [AcV(Chg)A(Tic)F] (Ac-V[Chg]A[Tic]F-NH2),10 to 100
3,CCC[C@H](NC(C)=O)C(=O)N[C@H](C(=O)N[C@@H](CCCNC(=N)N)C(=O)N1Cc2ccccc2C[C@H]1C(=O)N[C@@H](Cc1ccccc1)C(N)=O)C1CCCCC1 [Ac(nor-V)(Chg)R(Tic)F] (Ac-[Nva][Chg]R[Tic]F-NH2),1 to 10
4,CC(C)[C@H](NC(=O)CCN)C(=O)N[C@H](C(=O)N[C@@H](CCCNC(N)=O)C(=O)N1Cc2ccccc2C[C@H]1C(=O)N[C@@H](Cc1ccccc1)C(N)=O)C1CCCCC1 [(NH2-Beta Ala)V(Chg)(Cit)(Tic)F] (H-[βAla]V[Chg][Cit][Tic]F-NH2),1 to 10
5,CC(=O)N[C@H](C(=O)N[C@H](C(=O)N[C@@H](CCCNC(=N)N)C(=O)N1Cc2ccccc2C[C@H]1C(=O)NCCc1ccccc1)C1CCCCC1)C(C)C [AcV(Chg)R(Tic)(phenethylamide)] (Ac-V[Chg]R[Tic]-NHPhenethyl),100 to 1000
6,CC(=O)N[C@H](C(=O)N[C@H](C(=O)N[C@@H](CCCNC(=N)N)C(=O)N1Cc2ccccc2C[C@H]1C(=O)N[C@@H](Cc1ccccc1)C(N)=O)C1Cc2ccccc2C1)C(C)C [AcV(Indgly)R(Tic)F] (Ac-V[Igl]R[Tic]F-NH2),10 to 100
7,CC(=O)N[C@H](C(=O)N[C@H](C(=O)N[C@@H](CCCNC(=N)N)C(=O)N1Cc2ccccc2C[C@H]1C(=O)N[C@@H](Cc1ccccc1)C(N)=O)C1CCCC1)C(C)C [AcV(Cpg)R(Tic)F] (Ac-V[Gly(cPent)]R[Tic]F-NH2),1 to 10
8,CC(=O)N[C@H](C(=O)N[C@H](C(=O)N[C@@H](Cc1c[nH]cn1)C(=O)N1Cc2ccccc2C[C@H]1C(=O)N[C@@H](Cc1ccccc1)C(N)=O)C1CCCCC1)C(C)C [AcV(Chg)H(Tic)F] (Ac-V[Chg]H[Tic]F-NH2),10 to 100
9,CC(=O)N[C@H](C(=O)N[C@H](C(=O)N[C@@H](CCCNC(=N)N)C(=O)N1Cc2ccccc2C[C@H]1C(=O)NC(Cc1ccc2[nH]c3ccccc3c2c1)C(N)=O)C1CCCCC1)C(C)C (stereo partly shown) [AcV(Chg)R(Tic)-(3′-Carbazolyl Ala)] (Ac-V[Chg]R[Tic][X1]-NH2),100 to 1000
10,CC(C)[C@H](NC(=O)CCN)C(=O)N[C@H](C(=O)N[C@@H](Cc1ccccc1)C(=O)N[C@@H](Cc1ccccc1)C(=O)N[C@@H](Cc1ccccc1)C(N)=O)C1CCCCC1 [(NH2-Beta Ala)V(Chg)FFF] (H-[βAla]V[Chg]FFF-NH2),100 to 1000
11,CC(=O)N[C@H](C(=O)N[C@@H](CCCCN(C)C)C(=O)N1Cc2ccccc2C[C@H]1C(=O)N[C@@H](Cc1ccccc1)C(=O)N1CCCC[C@H]1C(N)=O)C1CCCC1 [Ac(Cpg)(diMeK)(Tic)F(homo Pro)] (Ac-[Gly(cPent)][Lys(Me2)][Tic]F[Pip]-NH2),10 to 100
12,CC(=O)N[C@H](C(=O)N[C@H](C(=O)N[C@@H](CCCNC(=N)N)C(=O)N1Cc2ccccc2C[C@H]1C(=O)NCCc1cccc2[nH]ccc12)C1CCCCC1)C(C)C [AcV(Chg)R(Tic)(4-ethylaminoindole)] (Ac-V[Chg]R[Tic]-X4),100 to 1000
13,CC(=O)N[C@H](C(=O)N[C@H](C(=O)N[C@@H](CCCNC(=N)N)C(=O)N1Cc2ccccc2C[C@H]1C(=O)N[C@@H](Cc1ccccc1)C(=O)O)C1CCCCC1)C(C)C [AcV(Chg)R(Tic)F-COOH] (Ac-V[Chg]R[Tic]F-OH),10 to 100
14,CC(=O)N[C@H](C(=O)N[C@H](C(=O)N[C@@H](CCCNC(=N)N)C(=O)N1Cc2ccccc2C[C@H]1C(=O)N[C@@H](Cc1cccc2[nH]ncc12)C(N)=O)C1CCCCC1)C(C)C [AcV(Chg)R(Tic)(4-Indazole)] (Ac-V[Chg]R[Tic][X7]-NH2),1 to 10
15,CC(=O)N[C@H](C(=O)N[C@H](C(=O)N[C@@H](CCCNC(=N)N)C(=O)N1[C@H](C(=O)N[C@@H](Cc2ccccc2)C(N)=O)C[C@@H]2CCCC[C@@H]21)C1CCCCC1)C(C)C [AcV(Chg)R(Oic)F] (Ac-V[Chg]R[Oic]F-NH2),100 to 1000
16,CC(=O)N[C@H](C(=O)N[C@H](C(=O)N[C@@H](CCCCNC(N)=O)C(=O)N1Cc2ccccc2C[C@H]1C(=O)N[C@@H](Cc1ccccc1)C(N)=O)C1CCCCC1)C(C)C [AcV(Chg)(homo Cit)(Tic)F] (Ac-V[Chg][hCit][Tic]F-NH2),1 to 10

row,Molecule,IC50 [nM]
1,CC(=O)N[C@H](C(=O)N[C@@H](CCCNC(=N)N)C(=O)N1Cc2ccccc2C[C@H]1C(=O)N[C@@H](Cc1c[nH]c2ccccc12)C(N)=O)C1CCCCC1 [Ac(Chg)R(Tic)(Trp)] (Ac-[Chg]R[Tic]W-NH2),10 to 100
2,CNCC(=O)N[C@H](C(=O)N[C@H](C(=O)N[C@@H](CCCNC(=N)N)C(=O)N1Cc2ccccc2C[C@H]1C(=O)N[C@@H](Cc1ccccc1)C(N)=O)C1CCCCC1)C(C)C [(NH2-Sar)V(Chg)R(Tic)F] (H-[Sar]V[Chg]R[Tic]F-NH2),1 to 10
3,CC[C@H](N)C(=O)N[C@H](C(=O)N[C@H](C(=O)N[C@@H](CCCNC(N)=O)C(=O)N1Cc2ccccc2C[C@H]1C(=O)N[C@@H](Cc1ccccc1)C(N)=O)C1CCCCC1)C(C)C [(NH2-Abu)V(Chg)(Cit)(Tic)F] (H-[Abu]V[Chg][Cit][Tic]F-NH2),1 to 10
4,CNC(=O)[C@H](Cc1ccccc1)NC(=O)[C@@H]1Cc2ccccc2CN1C(=O)[C@H](CCCNC(=N)N)NC(=O)[C@@H](NC(=O)[C@@H](NC(C)=O)C(C)C)C1Cc2ccccc2C1 [AcV(Indgly)R(Tic)F-CONHMe] (Ac-V[Igl]R[Tic]F-NHMe),1 to 10
5,CC[C@H](N)C(=O)N[C@H](C(=O)N[C@H](C(=O)N[C@@H](CCCNC(=N)N)C(=O)N1Cc2ccccc2C[C@H]1C(=O)N[C@@H](Cc1ccccc1)C(N)=O)C1CCCCC1)C(C)C [(NH2-Abu)V(Chg)R(Tic)F] (H-[Abu]V[Chg]R[Tic]F-NH2),1 to 10
6,CC(=O)N[C@H](C(=O)N[C@H](C(=O)N[C@@H](CCCNC(=N)N)C(=O)N1Cc2ccccc2C[C@H]1C(=O)NC(Cc1cccc2[nH]ccc12)C(N)=O)C1CCCCC1)C(C)C (stereo partly shown) [AcV(Chg)R(Tic)-(4′-Indolyl Ala)] (Ac-V[Chg]R[Tic][X5]-NH2),1 to 10
7,(NH2-Beta Ala)V(Chg)(pyrimidinyl)(Tic)F,10 to 100
8,CC(C)[C@H](NC(=O)[C@@H](N)Cc1csc2ccccc12)C(=O)N[C@H](C(=O)N[C@@H](CCCNC(=N)N)C(=O)N1Cc2ccccc2C[C@H]1C(=O)N[C@@H](Cc1ccccc1)C(N)=O)C1CCCCC1 [(NH2-BTA)V(Chg)R(Tic)F] (H-[Bta]V[Chg]R[Tic]F-NH2),10 to 100
9,CO[C@H](C)[C@H](NC(C)=O)C(=O)N[C@H](C(=O)N[C@@H](CCCNC(=N)N)C(=O)N1Cc2ccccc2C[C@H]1C(=O)N[C@@H](Cc1ccccc1)C(N)=O)C1CCCCC1 [Ac(T(OMe))(Chg)R(Tic)F] (Ac-T(Me)[Chg]R[Tic]F-NH2),1 to 10
10,CC(=O)N[C@H](C(=O)N[C@H](C(=O)N[C@@H](CCCNC(=N)N)C(=O)N1Cc2ccccc2C[C@H]1C(=O)NCCc1ccc2[nH]ccc2c1)C1CCCCC1)C(C)C [AcV(Chg)R(Tic)(5-ethylaminoindole)] (Ac-V[Chg]R[Tic]-X3),100 to 1000
11,CNCC(=O)N[C@H](C(=O)N[C@H](C(=O)N[C@@H](CCCNC(N)=O)C(=O)N1Cc2ccccc2C[C@H]1C(=O)N[C@@H](Cc1ccccc1)C(N)=O)C1CCCCC1)C(C)C [(NH2-Sar)V(Chg)(Cit)(Tic)F] (H-[Sar]V[Chg][Cit][Tic]F-NH2),1 to 10
12,CC(=O)N[C@H](C(=O)N[C@@H](CCCNC(=N)N)C(=O)N1Cc2ccccc2C[C@H]1C(=O)NC(Cc1cccc2[nH]ccc12)C(N)=O)C1CCCCC1 (stereo partly shown) [Ac(Chg)R(Tic)-(4′-Indolyl Ala)],10 to 100
13,CC(=O)N[C@H](C(=O)N[C@H](C(=O)N[C@@H](CCCNC(=N)N)C(=O)N1Cc2ccccc2C[C@H]1C(=O)N[C@@H](Cc1c[nH]c2ccccc12)C(N)=O)C1CCCCC1)C(C)C [AcV(Chg)R(Tic)(Trp)] (Ac-V[Chg]R[Tic]W-NH2),1 to 10
14,CC(=O)N[C@H](C(=O)N[C@H](C(=O)N[C@@H](CCCNC(=N)N)C(=O)N1Cc2ccccc2C[C@H]1C(=O)N[C@@H](Cc1cccc2[nH]cnc12)C(N)=O)C1CCCCC1)C(C)C [AcV(Chg)R(Tic)(4-benzimidazole)] (Ac-V[Chg]R[Tic][X2]-NH2),10 to 100
15,CC(=O)N[C@H](C(=O)N[C@@H](CCCNC(=N)N)C(=O)N1Cc2ccccc2C[C@H]1C(=O)N[C@@H](Cc1cn(C)c2ccccc12)C(N)=O)C1CCCCC1 [Ac(Chg)R(Tic)(1-Me-Trp)] (Ac-[Chg]R[Tic][Trp(1-Me)]-NH2),100 to 1000
